Six compounds from patent US8026359B2, “Fungicidal heterocyclic amines” (E.I. du Pont de Nemours and Company, priority 2007, dated 2011) can be followed below.

Type in all cases: in vivo
Assay [1] relates to Erysiphe graminis f. sp. tritici. As to the kind of experiment: Test A: wheat powdery mildew, preventive spray on wheat seedlings. As to conditions: 200 ppm, 100 = 100% disease control, 0 = no control relative to controls. The method, boiled down:
(§1)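 Preventive foliar spray to run-off on seedlings at 200 ppm (≈500 g/ha) or 40 ppm. Test suspension: acetone at 3% of final volume, then acetone/purified water 50/50 containing 250 ppm Trem® 014.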

Assay [2] has as its system Puccinia recondita f. sp. tritici. Put plainly: Test B: wheat leaf rust, preventive spray on wheat seedlings. The note with it: 200 ppm, 100 = 100% disease control, 0 = no control relative to controls. In outline:
as §1

The subject of assay [3] is Septoria nodorum. Put plainly: Test C: wheat glume blotch, preventive spray on wheat seedlings. The note with it: 200 ppm, 100 = 100% disease control, 0 = no control relative to controls. The method, boiled down: as §1
Assay [4] has as its system Septoria tritici. Put plainly: Test D: wheat leaf blotch, preventive spray on wheat seedlings. The note with it: 200 ppm, 100 = 100% disease control, 0 = no control relative to controls. In outline: as §1
Assay [5] deals with Fusarium graminearum. As to the kind of experiment: whole plant or invertebrate.
Assay [6] deals with Botrytis cinerea. As to the kind of experiment: Test F: tomato Botrytis, preventive spray on tomato seedlings. The note with it: 200 ppm, 100 = 100% disease control, 0 = no control relative to controls. The method, boiled down:
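Preventive run-off spray onto tomato seedlings at 200 ppm (equivalent to 500 g/ha) or 40 ppm. Suspensions: compound predissolved in acetone at 3% of final volume, then taken up in acetone/purified water 50/50 containing 250 ppm Trem® 014 surfactant.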

Assay [7] has as its system Colletotrichum orbiculare. Put plainly: Test I: cucumber Colletotrichum anthracnose, preventive spray on cucumber seedlings. As to conditions: 200 ppm; 100 = 100% disease control, 0 = no control relative to controls. The method, boiled down: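 Preventive foliar spray to run-off on cucumber seedlings, at 200 ppm (stated as equal to 500 g/ha) or 40 ppm. Test suspensions were made in acetone/water 50/50 containing 250 ppm Trem 014, after first dissolving compound in acetone at 3% of final volume.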

The subject of assay [8] is Phytophthora infestans. As to conditions: 200 ppm; 100 = 100% disease control, 0 = no control relative to controls.
For assay [9], the system named is Pythium aphanidermatum. Put plainly: Test M: bluegrass pythium blight, preventive spray on bluegrass seedlings. As to conditions: 200 ppm; 100 = 100% disease control, 0 = no control relative to controls. The source says:
(§2) General protocol for preparing test suspensions for Tests A-R: The test compounds were first dissolved in acetone in an amount equal to 3% of the final volume and then suspended at the desired concentration (in ppm) in acetone and purified water (50/50 mix) containing 250 ppm of the surfactant Trem® 014 (polyhydric alcohol esters). The resulting test suspensions were then used in tests A-R. In Tests A-M, compounds were sprayed as a 200 ppm test suspension (equivalent to a rate of 500 g/ha) or as a 40 ppm test suspension to the point of runoff on the test plants. In Tests N-R, compounds were sprayed as a 100 g/ha test suspension (equivalent to a rate of 100 ppm) on the test plants at an application volume of 1000 L/ha. The test suspension was sprayed to the point of run-off on bluegrass seedlings.

The subject of assay [10] is Alternaria solani. As to the kind of experiment: Test H: tomato early blight, preventive spray on seedlings.
Text: as §2, with “wheat” for “bluegrass”

The mark [11] stands for this setting: 200 ppm, 100 = 100% disease control, 0 = no control relative to controls.

Marks after values point to notes of the source that are not given here.

As for `Fc1ccc(F)c(Nc2cc(-c3ccnc(NC4CCOCC4)n3)ccn2)c1F` [Compound 73], in [1], the “Test A disease control rating” value is 43%. Moreover, in [2], the “Test B disease control rating” value amounted to 96%. Moreover, the “Test C disease control rating” value in assay [3] was found to be 99%. Besides, in assay [4], the “Test D disease control rating” value worked out at 40%. Besides, in assay [5] (setting [11]), the “Test E disease control rating” value is recorded as 0%. The “Test F disease control rating” value in assay [6] turned out to be 57%. The “Test I disease control rating” value in assay [7] is on record as 85%. In assay [8], the “Test K disease control rating” value was determined as 0%. Besides, in assay [9], the “Test M disease control rating” value is on record as 0%.
Turning to `Cc1cc(Cl)cc(Cl)c1Nc1cc(-c2ccnc(NC3CCOCC3)n2)ccn1` [Compound 100], the “Test A disease control rating” value in assay [1] turned out to be 0%. Also, in [2], the “Test B disease control rating” value came out at 98%. In addition, the “Test C disease control rating” value in assay [3] worked out at 98%. Further, the “Test D disease control rating” value in [4] came to 77%. The “Test E disease control rating” value in assay [5] (setting [11]) was 96%. Moreover, the “Test F disease control rating” value in assay [6] is given as 0%. In assay [10] (setting [11]), the “Test H disease control rating” value came out at 99%. Besides, the “Test I disease control rating” value in [7] came to 0%.
In the case of `COCC(C)(C)Nc1nccc(-c2ncnc(Nc3cc(F)cc(F)c3)n2)n1` [Compound 30], in assay [1], the “Test A disease control rating” value was determined as 67%. The “Test B disease control rating” value in [2] is given as 99%. Besides, the “Test C disease control rating” value in assay [3] is listed as 100%. Further, the “Test D disease control rating” value in [4] was 88%. For the same compound, in assay [5] (setting [11]), the “Test E disease control rating” value came to 91%. In assay [6], the “Test F disease control rating” value is reported as 96%. Also, the “Test H disease control rating” value in assay [10] (40 ppm (marked *)) is listed as 87* %.
On to `CC(C)(C)Nc1nccc(-c2ncnc(Nc3cc(F)cc(F)c3)n2)n1` [Compound 33], for which the “Test A disease control rating” value in [1] was determined as 0%. Besides, in [2], the “Test B disease control rating” value is listed as 87%. Also, in [3], the “Test C disease control rating” value came to 99%. The “Test D disease control rating” value in assay [4] is 22%. In addition, in [5] (40 ppm (marked *)), the “Test E disease control rating” value is reported as 83* %. For the same compound, in assay [6], the “Test F disease control rating” value is 0%. Besides, the “Test H disease control rating” value in assay [10] (setting [11]) was determined as 94%.
As to `COC[C@H](C)Nc1nccc(-c2ncnc(Nc3ccc(C#N)nc3)n2)n1` [Compound 37, 5-[[4-[2-[[(1S)-2-methoxy-1-methylethyl]amino]-4-pyrimidinyl]-1,3,5-triazinyl]amino]-2-pyridinecarbonitrile], the pest or weed control at 200 ppm in assay [1] (Blumeria graminis, 192 h, read-out: Test A disease control rating) worked out at 79%; in assay [2] (Puccinia recondita, 192 h, read-out: Test B disease control rating), 99%; in assay [3] (Parastagonospora nodorum, 216 h, read-out: Test C disease control rating) it was 98%; in [4] (Zymoseptoria tritici, 504 h, read-out: Test D disease control rating) it was 0%; in assay [5] (Fusarium graminearum, in Triticum aestivum, 192 h, read-out: Test E disease control rating) it was 41%; in assay [6] (Botrytis cinerea, 120 h, read-out: Test F disease control rating), 0%. Besides, in assay [10] (Alternaria solani, 168 h, 200 ppm, 100 = 100% disease control, 0 = no control relative to controls, read-out: Test H disease control rating), the pest or weed control at 200 ppm is 72%.
For `COC(C)(C)Nc1nccc(-c2ncnc(Nc3cc(F)cc(F)c3)n2)n1` [Compound 32], the “Test A disease control rating” value in [1] turned out to be 0%. The “Test B disease control rating” value in assay [2] is listed as 99%. Besides, the “Test C disease control rating” value in assay [3] came to 100%. The “Test D disease control rating” value in assay [4] stood at 39%. In [5] (setting [11]), the “Test E disease control rating” value turned out to be 38%. Moreover, the “Test F disease control rating” value in assay [6] was determined as 94%. Further, in assay [10] (setting [11]), the “Test H disease control rating” value is on record as 99%.
